Experimental findings from patent EP0400440B1, “Amino acid derivative anticonvulsant” (RESEARCH CORPORATION TECHNOLOGIES, INC., priority 1989, dated 1990) are described below.

In data set [1] the test system is male Carworth Farms #1 mice. Put plainly: Maximal electroshock seizure test (MES). The following applies: Mus musculus, maximal electroshock seizures. The format is in vivo. From the text: (§1) Pharmacology. The following compounds were'tested for anticonvulsant activity using male Carworth Farms #1 mice: • N-Acetyl-D,L-alanine-N'-benzylamide • N-Acetyl-D-alanine-N'-benzylamide • N-Acetyl-L-alanine-N'-benzylamide • N-Acetyl-D,L-phenylglycine-N'-methylamide • N-Acetylglycine-N-benzylamide • N-Acetyl-D,L-valine-N-benzylamide • N-Acetyl-D,L-phenylglycine-N-benzylamide • N-Acetyl-D-phenylglycine-N-benzylamide • N-Acetyl-L-phenylglycine-N-benzylamide • N-Acetyl-D,L-alanine-N-(3-methoxy)benzylamide • N-Trimethylacetyl-D,L-alanine-N-benzylamide • N-Acetyl-D,L-methionine-N-benzylamide • N-Acetyl-D,L-alanine-N'-(3-fluoro)benzylamide • D,L-α-Acetamido-N-benzyl-3-thiopheneacetamide • D,L-α-Acetamido-N-benzyl-2-thiopheneacetamide • D,L-α-Acetamido-N-benzyl-2-furanacetamide • D,L-α-Acetamido-N-benzyl-2-pyrroleacetamide • D,L-2-Acetamido-N-benzyl-2-ethoxyacetamide • D,L-α-Acetamido-N-benzyl-2-(5-methylfuran)acetamide • D,L-α-Acetamido-N-benzyl-2-benzofuranacetamide • D,L-α-Acetamido-N-benzyl-2-benzo[b]thiopheneacetamide • D,L-α-Acetamido-N-benzyl-2-(5-methylpyrrole)acetamide • D,L-α-Acetamido-N-(2-fluorobenzyl)-2-furanacetamide • D,L-α-Acetamido-N-(3-fluorobenzyl)-2-furanacetamide • D,L-α-Acetamido-N-(4-fluorobenzyl)-2-furanacetamide • D,L-α-Acetamido-N-(2,5-difluorobenzyl)-2-furanacetamide • D,L-α-Acetamido-N-(2,6-difluorobenzyl)-2-furanacetamide • D-(-)-α-Acetamido-N-benzyl-2-furanacetamide • L-(+)-α-Acetamido-N-benzyl-2-furanacetamide • D,L-2-Acetamido-4-pentenoic acid-N-benzylamide • D,L-2-Acetamido-N-benzyl-2-(1-morpholine)acetamide (reference compound) • D,L-2-Acetamido-N-benzyl-2-(N-anilino)acetamide • D,L-2-Acetamido-N-benzyl-2-(methylamino)acetamide • D,L-2-Acetamido-N-benzyl-2-(ethylamino)acetamide • D,L-2-Acetamido-N-benzyl-3-indoleacetamide (reference compound)
(§2) N-Acetyl-D,L-alanine-N'-benzylamide was tested at […] as well. […] Maximal electroshock seizures (MES) were elicited with a 60 cycle alternating current of 50 mA intensity (5-7 times that necessary to elicit minimal electroshock seizures) delivered for 0.2 sec via corneal electrodes. A drop of 0.9% saline was instilled in the eye prior to application of the electrodes so as to prevent the death of the animal. Protection in this test was defined as as the abolition of the hind limb tonic extension component of the seizure. The Subcutaneous Pentylenetetrazole (Metrazol^R) Seizure Threshold Test (sc Met) entailed the administration of 85 mg/kg of pentylenetetrazole as a 0.5% solution subcutaneously in the posterior midline. […] Protection was defined as a failure to observe even a threshold seizure (a single episode of clonic spasms of at least 5 sec duration). The effects of the compounds on forced and spontaneous motor activity were evaluated in mice using the Rotorod Test (Tox) or, in some cases, as indicated herein, a horizontal screen assay (HS). The procedure for the rotorod test is described in J. Am. Pharm. Assoc., 46, 208-209 (1957). In the rotorod test, the animal was placed on a one-inch diameter knurled plastic rod rotating at 6 rpm after the administration of the drug. Normal mice can remain on a rod rotating at this speed indefinitely. Neurologic toxicity was defined as the failure of the animal to remain on the rod for one minute. In the horizontal screen test, previously trained mice were dosed with the compound and placed individually on top of a square (13 cm X 13 cm) wire screen (no. 4 mesh) which was mounted on a metal rod. The rod was rotated 180°, and the number of mice that returned to the top of the screen was determined. Inability to climb to the top within one minute was defined as "neurological impairment". This procedure is described in Pharmacol. Biochem. Behav. 6, 351-353 (1977).
(§3) The dose effect behavior of the compounds was evaluated using the above-described procedures by the administration of varying dose levels, treating normally eight mice at each dose. […]
Background: In the maximal electroshock model the usual endpoint is tonic extension of the hind limbs.

A short description of data set [2]: Rotorod Test (Tox), neurologic toxicity. The conditions noted are these: mouse, in vivo, mice, median toxic dose, 95% confidence intervals in brackets. (In general: Falling from the rotarod earlier than controls is read as motor impairment.)
Method: The effects of the compounds on forced and spontaneous motor activity were evaluated in mice using the Rotorod Test (Tox) or, in some cases, as indicated herein, a horizontal screen assay (HS). […] In the rotorod test, the animal was placed on a one-inch diameter knurled plastic rod rotating at 6 rpm after the administration of the drug. Normal mice can remain on a rod rotating at this speed indefinitely. Neurologic toxicity was defined as the failure of the animal to remain on the rod for one minute. In the horizontal screen test, previously trained mice were dosed with the compound and placed individually on top of a square (13 cm X 13 cm) wire screen (no. 4 mesh) which was mounted on a metal rod. The rod was rotated 180°, and the number of mice that returned to the top of the screen was determined. Inability to climb to the top within one minute was defined as "neurological impairment".
Data set [3] in a line: Horizontal screen test (HS), neurological impairment. It is filed as in vivo. The conditions noted are these: mouse, in vivo; mice; determined using the horizontal screen test (footnote xx); 95% confidence intervals in brackets; read-out: Tox TD50.
Source text: as §1, §2, §3

In data set [4] the test system is male Carworth Farms #1 mice. Described as above. It is filed as in vivo. The conditions noted are these: determined using the horizontal screen test (footnote xx), 95% confidence intervals in brackets.
Source text: as §1, §2, §3

Data set [5] relates to male Carworth Farms #1 mice. Nature of the data set: Subcutaneous Pentylenetetrazole (Metrazol) Seizure Threshold Test (sc Met). It is filed as in vivo. The conditions noted are these: 85 mg/kg pentylenetetrazole subcutaneously, 95% confidence intervals in brackets. How it is done:
Pharmacology. […]
N-Acetyl-D,L-alanine-N'-benzylamide was tested at 600 mg/mL as well. […] The effects of the compounds on forced and spontaneous motor activity were evaluated in mice using the Rotorod Test (Tox) or, in some cases, as indicated herein, a horizontal screen assay (HS). […] The rod was rotated 180°, and the number of mice that returned to the top of the screen was determined. […]
as §3

Setting [6] is: 50 mA, 0.2 sec, corneal electrodes, 95% confidence intervals in brackets.

As to `C=CCC(NC(C)=O)C(=O)NCc1ccccc1` (racemic) [(D,L)-2-Acetamido-4-pentenoic Acid-N-benzylamide], the ED50 – broadly, the dose that gives a 50% effect, or the effect in half of the subjects – in data set [1] (setting [6]) was determined as 33.6 mg/kg.
In data set [1] (setting [6]), `CC(=O)NC(C(=O)NCc1ccccc1)N1CCOCC1` (racemic) [(D,L)-2-Acetamido-N-benzyl-2-(1-morpholine)acetamide, reference compound] came in with an ED50 of 30 to 100 mg/kg.
In turn, `CC(=O)NC(Nc1ccccc1)C(=O)NCc1ccccc1` (racemic) [(D,L)-2-Acetamido-N-benzyl-2-(N-anilino)acetamide] yielded an ED50 in data set [1] (result given as footnote symbol) of no less than 300 mg/kg.
In data set [1] (setting [6]), `CCNC(NC(C)=O)C(=O)NCc1ccccc1` (racemic) [(D,L)-2-Acetamido-N-benzyl-2-(ethylamino)acetamide] displayed an ED50 of 42.4 mg/kg.
The compound `CNC(NC(C)=O)C(=O)NCc1ccccc1` (racemic) [(D,L)-2-Acetamido-N-benzyl-2-(methylamino)acetamide] had an ED50 in data set [1] (setting [6]) of 44.5 mg/kg. Also, the TD50 (as a rule, the dose at which the toxic effect under study appears in half of the subjects) in data set [2] amounted to 95 mg/kg.
Compound `CC(=O)NC(C(=O)NCc1cc(F)ccc1F)c1ccco1` (racemic) [(D,L)-α-Acetamido-N-(2,5-fluorobenzyl)-2-furanacetamide] returned an ED50 in data set [1] (setting [6]) of 23.8 mg/kg.
For the compound `CC(=O)NC(C(=O)NCc1c(F)cccc1F)c1ccco1` (racemic) [(D,L)-α-Acetamido-N-(2,6-difluorobenzyl)-2-furanacetamide], in data set [1] (setting [6]), the ED50 was in the range of 25 to 100 mg/kg.
The same measure, in the same setting: the value for `CC(=O)NC(C(=O)NCc1ccccc1F)c1ccco1` (racemic) [(D,L)-α-Acetamido-N-(2-fluorobenzyl)-2-furanacetamide] was 40 mg/kg.
Consider `CC(=O)NC(C(=O)NCc1cccc(F)c1)c1ccco1` (racemic) [(D,L)-α-Acetamido-N-(3-fluorobenzyl)-2-furanacetamide], for which, in data set [1] (setting [6]), the ED50 amounted to 13.3 mg/kg. Further, in data set [3], the TD50 is 136 mg/kg.
Turning to `CC(=O)NC(C(=O)NCc1ccc(F)cc1)c1ccco1` (racemic) [(D,L)-α-Acetamido-N-(4-fluorobenzyl)-2-furanacetamide], the ED50 in data set [1] (setting [6]) was 12.7 mg/kg. For the same compound, the TD50 in data set [3] worked out at 144 mg/kg.
Compound `CC(=O)NC(C(=O)NCc1ccccc1)c1ccc(C)o1` (racemic) [(D,L)-α-Acetamido-N-benzyl-2-(5-methylfuran)acetamide] registered an ED50 in data set [1] (setting [6]) of 19.2 mg/kg. In addition, the “Tox TD50” value in data set [4] is listed as 75.4^xx mg/kg.
Turning to `CC(=O)NC(C(=O)NCc1ccccc1)c1ccc(C)[nH]1` (racemic) [(D,L)-α-Acetamido-N-benzyl-2-(5-methylpyrrole)acetamide], it took a dose of 36.5 mg/kg to reach the 50% effect level in data set [1] (setting [6]) (ED50).
On to `CC(=O)NC(C(=O)NCc1ccccc1)c1cc2ccccc2s1` (racemic) [(D,L)-α-Acetamido-N-benzyl-2-benzo[b]thiopheneacetamide], for which the ED50 in data set [1] (setting [6]) was in the range of 100 to 300 mg/kg. Also, the TD50 in data set [3] was 100 to 300 mg/kg.
Compound `CC(=O)NC(C(=O)NCc1ccccc1)c1cc2ccccc2o1` (racemic) [(D,L)-α-Acetamido-N-benzyl-2-benzofuranacetamide] displayed an ED50 in data set [1] (setting [6]) of 100 to 300 mg/kg. Also, in data set [3], the TD50 lay within 100 to 300 mg/kg.
As to `CC(=O)NC(C(=O)NCc1ccccc1)c1ccco1` (racemic) [D,L-α-Acetamido-N-benzyl-2-furanacetamide], the TD50 in data set [3] was 23.8 mg/kg; in data set [2], greater than 300 mg/kg.
With `O=C1NC(=O)C(c2ccccc2)(c2ccccc2)N1` [phenytoin], the “sc Met ED50” value in data set [5] is “not effective”.
